Test results published in US10202350B2, “MCT4 inhibitors for treating disease” (Vettore, LLC, priority 2015, dated 2019).

Legend:
MCT4 [1] = target: T1, MCT4 (Homo sapiens (Human), UniProt O15427); experiment: Lactate transport in MCT4-expressing MDA-MB-453 breast cancer cells (BCECF); format: cell-based; conditions: MDA-MB-453 cells stably expressing MCT4; 50 mM L-lactate
Method: Assay 1: Lactate Transport in MCT4-Expressing MDA-MB-453 Breast Cancer Cells. […] The following is an exemplary procedure for assaying MCT4 activity of the compounds of Formula (I). Preparing BCECF-Loaded Cells: […] The cells are pelleted (300 g, 5 min), washed once with 1 mL Tyrode's Solution, pH 7.4, re-pelleted (300 g, 5 min), and resuspended in 1 mL Tyrode's Solution, pH 7.4. Lactate Transport Assay: […] Fluorescence measurements are performed on a PerkinElmer LS55 fluorescence spectrometer with dual excitation wavelengths achieved using a filter wheel (FL Winlab program: Fast Filter; […] Emission 535). After establishing baseline BCECF fluorescence (around 10-20 s), 50 μL of 1 M sodium L-lactate (Sigma-Aldrich) is added to the cuvette (final concentration: 50 mM) and rapidly mixed.

MCT4 [2] = target: T1, MCT4; experiment: MCT4-mediated lactate transport in NCI-H358 lung adenocarcinoma cells; format: cell-based; conditions: native MCT4, 50 mM L-lactate
Method: Cells (˜7×10^6) are trypsinized (0.05% Trypsin-EDTA), pelleted (300 g, 5 min), and resuspended in 1 mL Tyrode's Solution, pH 7.4 (119 mM NaCl, 5 mM KCl, 25 mM HEPES, pH 7.4, 2 mM CaCl2, 2 mM MgCl2, 6 g/L glucose). 10 μL of a 30 mM DMSO stock of BCECF-AM ester (Life Technologies) is added and the cells are incubated at 37° C. for 5 min. The cells are pelleted (300 g, 5 min), washed once with 1 mL Tyrode's Solution, pH 7.4, re-pelleted (300 g, 5 min), and resuspended in 1 mL Tyrode's Solution, pH 7.4.
2.5 μL BCECF-loaded cells, along with either 10 μL DMSO or 100×compound in DMSO, are added to 937.5 μL of Tyrode's Solution in a quartz 1.0 mL cuvette (PerkinElmer, B0631116). Fluorescence measurements are performed on a PerkinElmer LS55 fluorescence spectrometer with dual excitation wavelengths achieved using a filter wheel (FL Winlab program: Fast Filter; Excitation 490/440; Emission 535). After establishing baseline BCECF fluorescence (around 10-20 s), 50 μL of 1 M sodium L-lactate (Sigma-Aldrich) is added to the cuvette (final concentration: 50 mM) and rapidly mixed. The time-dependent decrease in BCECF fluorescence (490/440 ratio) may be fit to an exponential decay curve (Prism GraphPad) to determine the rate of lactate transport.
Assay 2: MCT4-Mediated Lactate Transport in NCI-H358 Lung Adenocarcinoma Cells.
NCI-H358 lung adenocarcinoma cells may be used to measure MCT4 activity in cells with high native levels of MCT4 and low levels of MCT1 and are known to those with skill in the art. Preparation of BCECF-loaded cells and lactate transport activity may be determined as described for Assay 1.

MCT4 [3] = target: T1, MCT4; experiment: MCT4-mediated lactate transport in MDA-MB-231 breast cancer cells; format: cell-based; conditions: MDA-MB-231 cells, native MCT4; 50 mM L-lactate
Method in brief: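 MDA-MB-231 cells loaded with BCECF-AM for 5 min at 37° C, then held in Tyrode's Solution, pH 7.4, with compound or 1% DMSO. After baseline, sodium L-lactate added to 50 mM final. Transport rate from exponential fit of the falling 490/440 BCECF ratio.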

MCT1 = MCT1 (Homo sapiens (Human), UniProt P53985); experiment: MCT1-mediated lactate transport in BT20 breast cancer cells; format: cell-based; conditions: native MCT1, 10 mM L-lactate
MCT1, sequence (P53985 whole entry): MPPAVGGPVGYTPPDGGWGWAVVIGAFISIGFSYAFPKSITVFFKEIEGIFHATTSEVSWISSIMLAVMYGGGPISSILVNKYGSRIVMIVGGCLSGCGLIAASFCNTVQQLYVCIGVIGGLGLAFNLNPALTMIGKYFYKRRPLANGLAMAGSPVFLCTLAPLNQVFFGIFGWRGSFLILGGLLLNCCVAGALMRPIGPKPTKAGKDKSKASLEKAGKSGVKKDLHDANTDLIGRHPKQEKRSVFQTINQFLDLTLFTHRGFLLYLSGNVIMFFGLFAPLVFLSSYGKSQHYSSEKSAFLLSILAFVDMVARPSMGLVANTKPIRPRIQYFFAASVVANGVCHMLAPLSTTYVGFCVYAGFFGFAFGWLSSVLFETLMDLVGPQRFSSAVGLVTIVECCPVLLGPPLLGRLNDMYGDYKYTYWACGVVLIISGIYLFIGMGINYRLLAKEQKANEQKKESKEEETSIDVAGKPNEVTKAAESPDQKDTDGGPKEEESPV
MCT1, sequence (P35613 140-385 partner): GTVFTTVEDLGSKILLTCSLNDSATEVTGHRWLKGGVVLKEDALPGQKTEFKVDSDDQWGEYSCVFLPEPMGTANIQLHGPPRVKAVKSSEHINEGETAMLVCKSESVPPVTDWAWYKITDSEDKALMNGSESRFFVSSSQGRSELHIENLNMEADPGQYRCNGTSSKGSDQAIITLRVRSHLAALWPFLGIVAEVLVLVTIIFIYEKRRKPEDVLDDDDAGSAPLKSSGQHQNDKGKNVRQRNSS
Method in brief: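 BT20 cells loaded with BCECF-AM (5 min, 37 °C) were placed in Tyrode's Solution, pH 7.4, with compound or DMSO in a cuvette. After baseline, 10 mM L-lactate was added, and the transport rate came from an exponential fit to the fall in BCECF fluorescence (490/440 ratio).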

[4] = Metabolic stability in human liver microsomes; format: in vitro ADME; conditions: human liver microsomes 0.5 mg/mL, 2 μM compound; remaining percentage of parent at 60 min
Method: (§1) Metabolic Stability Assays The following are assays that may be used to evaluate the metabolic stability of compounds of Formula (I) in human or mouse microsomes. 1. […] Two separated experiments were performed as follows. a) With NADPH: 10 μL of 20 mg/mL liver microsomes and 40 μL of 10 mM NADPH were added to the incubations. […] The final concentration of microsomes was 0.5 mg/mL. 3. The reaction was started with the addition of 4 μL of 200 μM control compound or test compound solutions. Verapamil was used as positive control in this study. The final concentration of test compound or control compound was 2 μM. 4. Aliquots of 50 μL were taken from the reaction solution at 0, 15, 30, 45 and 60 min. […] Samples were centrifuged at 3, 220 g for 40 minutes. Aliquot of 90 μL of the supernatant was mixed with 90 μL of ultra-pure H2O and then used for LC-MS/MS analysis. 5. Data analysis. All calculations were carried out using Microsoft Excel. Peak areas were determined from extracted ion chromatograms. The slope value, k, was determined by linear regression of the natural logarithm of the remaining percentage of the parent drug vs. incubation time curve. The in vitro half-life (in vitro t½) was determined from the slope value: in vitro t1/2=−(0.693)/k.

[5] = Metabolic stability in mouse liver microsomes; format: in vitro ADME; conditions: mouse liver microsomes 0.5 mg/mL, 2 μM compound; remaining percentage of parent at 60 min
Method: as §1

T1 sequence (O15427 whole entry, looked up): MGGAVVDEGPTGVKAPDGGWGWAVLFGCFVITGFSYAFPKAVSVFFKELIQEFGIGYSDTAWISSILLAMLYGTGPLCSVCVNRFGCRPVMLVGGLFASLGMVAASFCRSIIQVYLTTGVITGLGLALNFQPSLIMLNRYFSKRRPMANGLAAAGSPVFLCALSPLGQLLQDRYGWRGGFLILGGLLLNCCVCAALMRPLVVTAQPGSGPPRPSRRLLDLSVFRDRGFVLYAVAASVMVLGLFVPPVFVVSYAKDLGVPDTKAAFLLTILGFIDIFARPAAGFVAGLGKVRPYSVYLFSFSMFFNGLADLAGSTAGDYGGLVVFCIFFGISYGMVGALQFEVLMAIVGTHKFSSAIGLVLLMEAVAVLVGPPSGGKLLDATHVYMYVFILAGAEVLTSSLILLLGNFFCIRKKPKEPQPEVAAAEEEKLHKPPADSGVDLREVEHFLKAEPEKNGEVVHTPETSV
T1 sequence (P35613 whole entry partner, looked up): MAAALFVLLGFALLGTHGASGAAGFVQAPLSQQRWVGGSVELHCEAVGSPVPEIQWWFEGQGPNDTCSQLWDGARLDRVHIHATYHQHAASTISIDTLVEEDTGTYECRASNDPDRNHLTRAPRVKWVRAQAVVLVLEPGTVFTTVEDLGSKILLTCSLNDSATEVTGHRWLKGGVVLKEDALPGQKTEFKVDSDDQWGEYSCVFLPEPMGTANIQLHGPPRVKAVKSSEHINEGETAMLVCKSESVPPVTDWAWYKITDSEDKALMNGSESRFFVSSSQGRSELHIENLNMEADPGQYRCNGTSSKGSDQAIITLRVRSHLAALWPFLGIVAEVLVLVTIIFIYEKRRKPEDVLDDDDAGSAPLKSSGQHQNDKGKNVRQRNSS

Compound | IC50 (MCT4 [1]) [nM] | IC50 (MCT4 [2]) [nM] | IC50 (MCT4 [3]) [nM] | IC50 (MCT1; Table 2) [nM] | IC50 (MCT1; Table 3) [nM] | Human microsome % 60 min [4] [%] | Mouse microsome % 60 min [5] [%]
COc1cccc(-c2cc(COC(C)(C)C(=O)O)nn2Cc2ccccc2Cl)c1 [Example 14, 2-[[1-[(2-Chlorophenyl)methyl]-5-(3-methoxyphenyl)pyrazol-3-yl]methoxy]-2-methyl-propanoic acid] | 26 | 44 | 30 | > 100000 | > 100000 | 82 | 95
CC(C)(OCc1cc(-c2ccc(Cl)cc2)n(Cc2ccccn2)n1)C(=O)O [Example 22, 2-[[5-(4-Chlorophenyl)-1-(2-pyridylmethyl)pyrazol-3-yl]methoxy]-2-methyl-propanoic acid] | 14000 | 39000 |  | 150000 |  |  | 
CC(C)COc1cccc(-c2cc(COC(C)(C)C(=O)O)nn2Cc2ccccc2Cl)c1 [Example 27, 2-[[1-[(2-Chlorophenyl)methyl]-5-(3-isobutoxyphenyl)pyrazol-3-yl]methoxy]-2-methyl-propanoic acid] |  |  | 1 |  | 5600 | 43 | 50
CC(C)Oc1cccc(-c2cc(COC(C)(C)C(=O)O)nn2Cc2ccccc2Cl)c1 [Example 35, 2-[[1-[(2-Chlorophenyl)methyl]-5-(3-isopropoxyphenyl)pyrazol-3-yl]methoxy]-2-methyl-propanoic acid] |  |  | 5.2 |  | 59000 | 67 | 31
COc1cccc(-c2cc(COC(C)(C)C(=O)O)nn2Cc2ccccc2OC)c1 [Example 36, 2-[[5-(3-Methoxyphenyl)-1-[(2-methoxyphenyl)methyl]pyrazol-3-yl]methoxy]-2-methyl-propanoic acid] |  |  | 82 |  | 50000 | 85 | 99
COc1cccc(-c2cc(COC(C)(C)C(=O)O)nn2Cc2ccccc2N(C)C)c1 [Example 38, 2-[[1-[[2-(Dimethylamino)phenyl]methyl]-5-(3-methoxyphenyl)pyrazol-3-yl]methoxy]-2-methyl-propanoic acid] |  |  | 48 |  | 60000 | 56 | 61
CC(C)(OCc1cc(-c2cccc(OC3CC3)c2)n(Cc2ccccc2Cl)n1)C(=O)O [Example 39, 2-[[1-[(2-Chlorophenyl)methyl]-5-[3-(cyclopropoxy)phenyl]pyrazol-3-yl]methoxy]-2-methyl-propanoic acid] |  |  | 5.4 |  | 10000 | 89 | 88

Continued, values first:

IC50 (MCT4 [1]) [nM] | IC50 (MCT4 [2]) [nM] | IC50 (MCT4 [3]) [nM] | IC50 (MCT1; Table 2) [nM] | IC50 (MCT1; Table 3) [nM] | Human microsome % 60 min [4] [%] | Mouse microsome % 60 min [5] [%] | Compound
 |  | 37 |  | 27000 | 59 | 95 | COc1cccc(-c2c(C)c(COC(C)(C)C(=O)O)nn2Cc2ccccc2Cl)c1 [Example 54, 2-({1-[(o-Chlorophenyl)methyl]-5-(m-methoxyphenyl)-4-methyl-1H-pyrazol-3-yl}methoxy)-2-methylpropionic acid]
 |  |  |  | > 133000 | 80 | 100 | COc1cccc(-c2cc(COC(C)(C)C(=O)O)nn2-c2ccccc2Cl)c1 [Example 57, 2-[[1-(2-chlorophenyl)-5-(3-methoxyphenyl)-1H-pyrazol-3-yl]methoxy]-2-methylpropanoic acid]
 |  | 8.3 |  | 45000 | 82 | 84 | COc1ccc(-c2cc(COC(C)(C)C(=O)O)nn2Cc2ccccc2Cl)s1 [Example 64, 2-([1-[(2-Chlorophenyl)methyl]-5-(5-methoxythiophen-2-yl)-1H-pyrazol-3-yl]methoxy)-2-methylpropanoic Acid]
 |  | 8 |  | 13000 | 78 | 92 | COc1csc(-c2cc(COC(C)(C)C(=O)O)nn2Cc2ccccc2Cl)c1 [Example 65, 2-([1-[(2-Chlorophenyl)methyl]-5-(4-methoxythiophen-2-yl)-1H-pyrazol-3-yl]methoxy)-2-methylpropanoic Acid]
 |  | 7.8 |  | 45000 | 73 | 83 | COc1cc(-c2cc(COC(C)(C)C(=O)O)nn2Cc2ccccc2Cl)cs1 [Example 66, 2-([1-[(2-chlorophenyl)methyl]-5-(5-methoxythiophen-3-yl)-1H-pyrazol-3-yl]methoxy)-2-methylpropanoic Acid]
 |  | 9.1 |  | 26000 | 95 | 91 | CCC(C)(OCc1cc(-c2cccc(OC)c2)n(Cc2ccccc2Cl)n1)C(=O)O (centres unmarked) [Example 68, 2-([1-[(2-Chlorophenyl)methyl]-5-(3-methoxyphenyl)-1H-pyrazol-3-yl]methoxy)-2-methylbutanoic Acid]
